In patent publication US20180251425A1, “2,3,5 TRISUBSTITUTED PYRROLE DERIVATIVES AS TOPOISOMERASE INHIBITORS AND THERAPEUTIC USES THEREOF” (UNIVERSITY OF MYSORE, priority 2015, published 2018):

Legend:
HeLa = assay: Cytotoxicity in HeLa cells; type: cell-based; conditions: Homo sapiens, read-out: Cytotoxicity IC 50 in μM (Cell lines) HeLa
Protocol: (§1) Human cancer cell lines, K562, MCF7, HeLa and HEK 293T were purchased from National Centre for Cell Science, Pune, India. Cells were grown in RPMI 1640/MEM/DMEM supplemented with 10% heat-inactivated fetal bovine serum (FBS), 100 U/mL of Penicillin, and 100 μg of streptomycin/mL and incubated at 37° C. in a humidified atmosphere containing 5% CO2.
Cytotoxic effect of the newly synthesized compounds against leukemic cells was assessed using 3-(4, 5-dimethyl-2-yl02, 5-diphenyl tetrazolium bromide (MTT) assay. After exposure of compound at different concentration (0.01, 0.1, 0.5, 1, 10, 50 and 100 μM) cells were harvested and transferred into 96 well plate, MTT (5 mg/ml) was added and incubate at 37° C. for 4 h and formazan crystals were dissolved by adding solubilizing agent (10% SDS and 50% dimethyl formamide) for 1 h, finally plate was read at 570 nm (Bio-Rad, USA). Results were represented as inhibition of percentage of cell proliferation in bar diagram (n=3) (FIGS. 1 A, C, E and G). […]

K562 = assay: Cytotoxicity (MTT / trypan blue) in K562 cells; type: cell-based; conditions: Homo sapiens, read-out: Cytotoxicity IC 50 in μM (Cell lines) K562
Protocol: as §1
(§2) The human T cell leukemia cell line Molt4, Human acute lymphoblastic leukemia (ALL) cell line Nalm6, Human acute myelocytic leukemia (AML) cell line Reh, chronic myelogenous leukemia (CML) cell line K562, Human breast adenocarcinoma cell lines like MCF7 and human kidney cell line HEK 293T (Human embryonic kidney cell line) were selected for the purpose of preliminary anticancer screening of newly synthesized compounds (ASR1 to ASR15). To check the cytotoxicity, trypan blue dye exclusion assays, MTT assay were employed as described earlier Further, Cell cycle analysis, Mitochondrial membrane potential, Annexin-V FITC staining assay were also performed in order to understand the mode of cell death after treatment with ASR6. Further, ASR6 was also tested for its ability to inhibit topoisomerase I and II activity in vitro.
(§3) Cytotoxic effect of the newly synthesized compounds against leukemic cells was assessed using 3-(4, 5-dimethyl-2-yl02, 5-diphenyl tetrazolium bromide (MTT) assay. After exposure of compound at different concentration (0.01, 0.1, 0.5, 1, 10, 50 and 100 μM) cells were harvested and transferred into 96 well plate, MTT (5 mg/ml) was added and incubate at 37° C. for 4 h and formazan crystals were dissolved by adding solubilizing agent (10% SDS and 50% dimethyl formamide) for 1 h, finally plate was read at 570 nm (Bio-Rad, USA). Results were represented as inhibition of percentage of cell proliferation in bar diagram (n=3) (FIGS. 1 A, C, E and G).
(§4) To determine the growth inhibitory activity of the drug, 0.5×10^5 cell/ml were plated in 24 well (Biofil, USA.) in 1 ml of complete medium and treated with various concentration of the compound to test, cells were stained with 0.4% trypan blue and counted on a hemocytometer after treatment with compounds at 48 and 72 h time point. Results were represented as number of viable cells/ml in bar diagram (FIGS. 1 B, D, F, and H) (n=3).

Molt4 cells = assay: Cell cycle analysis (propidium iodide, flow cytometry); type: cell-based, Human; conditions: Molt4 cells, 0.01, 0.1, 0.25 and 0.5 μM, concentration dependent
Protocol: The DNA content analysis was performed by using Flow cytometer, Molt4 cells seeded (0.5×10^5 cells/ml) in 6 well plate and treated with different concentrations of ASR6 (0.01, 0.1, 0.25 and 0.5 μM) at 37° C. for 48 h. After incubation cells were harvested, processed and fixed in 80% chilled ethanol. Overnight treated with RNase-A (50 μg/ml) incubated at 37° C. Further cells stained with propidium iodide (5 μg/ml) and cell cycle progression was monitored using flow cytometer (FACSVerse™ BD Biosciences, USA). A minimum of 10000 cells were recorded. Results were analyzed using Flowing Software (Version 2.5) and plotted histograms.
In FIG. 2 A, B histograms representing different phases of cell cycle distribution of ASR6 (0.01, 0.1, 0.25 and 0.5 μM for 24 h and 48 h) treated Molt4 cells is shown.

Nalm6 = assay: Cytotoxicity (MTT / trypan blue) in Nalm6 cells; type: cell-based; conditions: Homo sapiens, NALM-6, read-out: Cytotoxicity IC 50 in μM (Cell lines) Nalm6
Protocol: as §1
(§5) Nalm6, Molt4 and Reh cells were provided by Dr. Sathees C. Raghavan, Department of Biochemistry, IISc, Bangalore. The cells were grown under the similar culture conditions as mentioned above.
as §2, §3, §4

[1] = Cytotoxicity in HEK293T cells; type: cell-based; conditions: human, HEK293T cells (human embryonic kidney); read-out: Cytotoxicity IC 50 in μM (Cell lines) HEK293T
Protocol: as §1
The human T cell leukemia cell line Molt4, Human acute lymphoblastic leukemia (ALL) cell line Nalm6, Human acute myelocytic leukemia (AML) cell line Reh, chronic myelogenous leukemia (CML) cell line K562, Human breast adenocarcinoma cell lines like MCF7 and human kidney cell line HEK 293T (Human embryonic kidney cell line) were selected for the purpose of preliminary anticancer screening of newly synthesized compounds (ASR1 to ASR15). […]
as §4, with “Results were represented as number of viable cells/ml in bar diagram (FIGS. 1 B, D, F, and H) (n=3).” left out

MCF7 = assay: Cytotoxicity in MCF7 cells; type: cell-based; conditions: Homo sapiens, read-out: Cytotoxicity IC 50 in μM (Cell lines) MCF7
Protocol: as §1, §2, §3, §4

Reh = assay: Cytotoxicity (MTT / trypan blue) in Reh cells; type: cell-based; conditions: Homo sapiens, read-out: Cytotoxicity IC 50 in μM (Cell lines) Reh
Protocol: as §1, §5, §2, §3, §4

With `CCOC(=O)c1[nH]c(-c2ccc(Cl)cc2)cc1-c1cccnc1` [ASR6, Ethyl 5-(4-chlorophenyl)-3-(pyridin-3-yl)-1H-pyrrole-2-carboxylate] as the compound, how does the IC50 (HeLa) read?
Its IC50 is 0.749 µM.

And the IC50 (K562)?
The IC50 was 0.512 µM.

What about the “Cell cycle progression at 24 h” value (Molt4 cells; 24 h) of the same compound?
The value was “G2/M arrest”.

What about the “Cell cycle progression at 48 h” value (Molt4 cells; 48 h) of the same compound?
Its value is “SubG1 phase (apoptosis)”.

And the IC50 (Nalm6)?
Its IC50 is 0.344 µM.

What about the IC50 [1] of the same compound?
The IC50 was 0.866 µM.

And the IC50 (MCF7)?
The IC50 was 0.884 µM.

And the IC50 (Reh)?
The IC50 was 0.36 µM.
